The subject of experiment [1] is HL-60. The experiment in a line: Inhibition of nitrite production in Homo sapiens (human) HL60 cells at 5 to 15 uM after 12 hr by Griess assay. It is filed as functional, cell-based.
In another experiment the test system is MCF7. In words: Cytotoxicity against Homo sapiens (human) MCF7 cells assessed as growth inhibition after 48 hr by MTT assay. The conditions noted are these: MCF7, 48 h. It counts as functional, cell-based. In general terms: Tetrazolium assays rely on reduction of a dye to a coloured formazan, in cell work by metabolically active cells.
For experiment [2], the system named is HL-60. In words: Cytotoxicity against Homo sapiens (human) HL60 cells assessed as growth inhibition after 48 hr by MTT assay. The note with it: HL-60, 48 h. It is filed as functional, cell-based.
The test system of a further experiment is HCT-116. In words: Cytotoxicity against Homo sapiens (human) HCT116 cells assessed as growth inhibition after 48 hr by MTT assay. It counts as functional, cell-based. The conditions noted are these: HCT-116, 48 h.
In the next experiment the test system is Vero. In words: Cytotoxicity against Chlorocebus aethiops (African green monkey) Vero cells assessed as growth inhibition after 48 hr by MTT assay. It counts as cell-based. The note with it: Chlorocebus sabaeus.
Another experiment concerns HSC-2. The experiment in a line: Cytotoxicity against Homo sapiens (human) HSC2 cells assessed as growth inhibition after 48 hr by MTT assay. It is filed as functional, cell-based. The conditions noted are these: HSC-2, 48 h.
Experiment [3] concerns HL-60. In words: Upregulation of caspase-3 expression in Homo sapiens (human) HL60 cells at 15 uM after 4 hr by RT-PCR analysis. It is filed as functional, cell-based.
Experiment [4] deals with HL-60. The experiment in a line: Downregulation of iNOS expression in Homo sapiens (human) HL60 cells after 12 hr by scanning densitometric analysis. It counts as functional, cell-based.
Experiment [5] relates to HL-60. The experiment in a line: Cell cycle arrest in Homo sapiens (human) HL60 cells assessed as accumulation at sub-G1 phase at 15 uM after 9 hr by propidium iodide staining-based FACS flow cytometric analysis (reference value: 0.1%). It is filed as functional. (In general: Flow cytometry measures light scatter and fluorescence of single cells or particles in a stream.)

For experiment [6], the system named is HL-60. In words: Cell cycle arrest in Homo sapiens (human) HL60 cells assessed as accumulation at G2/M phase at 15 uM after 6 hr by propidium iodide staining-based FACS flow cytometric analysis (reference value: 9 +/- 1.2%). It is filed as functional.
For experiment [7], the system named is HL-60. In words: Induction of apoptosis in Homo sapiens (human) HL60 cells assessed as DNA fragmentation at 15 uM after 24 hr by hoechst 33258 staining-based fluorescence microscopic analysis relative to control. It counts as functional, cell-based.
The subject of experiment [8] is HL-60. In words: Cell cycle arrest in Homo sapiens (human) HL60 cells assessed as accumulation at G0/G1 phase at 15 uM after 3 hr by propidium iodide staining-based FACS flow cytometric analysis (reference value: 36.2 +/- 2.4%). It is filed as functional.
Experiment [9] concerns HL-60. The experiment in a line: Cell cycle arrest in Homo sapiens (human) HL60 cells assessed as accumulation at G2/M phase at 15 uM after 3 hr by propidium iodide staining-based FACS flow cytometric analysis (reference value: 9 +/- 1.2%). It is filed as functional.
Experiment [10] relates to HL-60. In words: Cell cycle arrest in Homo sapiens (human) HL60 cells assessed as accumulation at sub-G1 phase at 15 uM after 12 hr by propidium iodide staining-based FACS flow cytometric analysis (reference value: 0.1%). It counts as functional.
Experiment [11] has as its system HL-60. In words: Cell cycle arrest in Homo sapiens (human) HL60 cells assessed as accumulation at G0/G1 phase at 15 uM after 12 hr by propidium iodide staining-based FACS flow cytometric analysis (reference value: 36.2 +/- 2.4%). It counts as functional.
Experiment [12] deals with HL-60. In words: Downregulation of iNOS expression in Homo sapiens (human) HL60 cells at 15 uM after 4 hr by RT-PCR analysis relative to control. It counts as functional, cell-based.
The subject of experiment [13] is HL-60. The experiment in a line: Downregulation of bcl-2 expression in Homo sapiens (human) HL60 cells at 15 uM after 4 hr by RT-PCR analysis. It counts as functional, cell-based.
In experiment [14] the test system is HL-60. The experiment in a line: Cell cycle arrest in Homo sapiens (human) HL60 cells assessed as accumulation at sub-G1 phase at 15 uM after 6 hr by propidium iodide staining-based FACS flow cytometric analysis (reference value: 0.1%). It counts as functional.
The test system of experiment [15] is HL-60. In words: Induction of apoptosis in Homo sapiens (human) HL60 cells assessed as caspase 3 activation at 15 uM after 24 hr by colorimetric analysis. It is filed as functional, cell-based.
Experiment [16] has as its system HL-60. In words: Inhibition of TNFalpha production in Homo sapiens (human) HL60 cells after 6 hr by ELISA. It counts as functional, cell-based. (In general: An ELISA detects its analyte on a solid surface through an enzyme-linked reagent.)
The subject of experiment [17] is HL-60. The experiment in a line: Cell cycle arrest in Homo sapiens (human) HL60 cells assessed as accumulation at G2/M phase at 15 uM after 12 hr by propidium iodide staining-based FACS flow cytometric analysis (reference value: 8.2 +/- 0.4%).
The subject of experiment [18] is HL-60. In words: Cell cycle arrest in Homo sapiens (human) HL60 cells assessed as accumulation at sub-G1 phase at 15 uM after 3 hr by propidium iodide staining-based FACS flow cytometric analysis (reference value: 0.1%). It is filed as functional.
The subject of experiment [19] is HL-60. In words: Downregulation of NF-kappaB expression in Homo sapiens (human) HL60 cells at 15 uM after 4 hr by RT-PCR analysis. It counts as functional, cell-based.
In experiment [20] the test system is HL-60. The experiment in a line: Cell cycle arrest in Homo sapiens (human) HL60 cells assessed as accumulation at S phase at 15 uM after 3 hr by propidium iodide staining-based FACS flow cytometric analysis (reference value: 56.8 +/- 2.4%). It is filed as functional.
Experiment [21] concerns HL-60. In words: Inhibition of nitrite production in Homo sapiens (human) HL60 cells after 12 hr by Griess assay. It is filed as functional, cell-based.
Experiment [22] has as its system HL-60. In words: Cell cycle arrest in Homo sapiens (human) HL60 cells assessed as accumulation at G0/G1 phase at 15 uM after 9 hr by propidium iodide staining-based FACS flow cytometric analysis (reference value: 36.2 +/- 2.4%). It is filed as functional.
Experiment [23] relates to HL-60. The experiment in a line: Induction of apoptosis in Homo sapiens (human) HL60 cells assessed as appearance of apoptotic bodies at 15 uM after 24 hr by hoechst 33258 staining-based fluorescence microscopic analysis relative to control. It is filed as functional, cell-based.
Experiment [24] concerns HL-60. The experiment in a line: Cell cycle arrest in Homo sapiens (human) HL60 cells assessed as accumulation at G2/M phase at 15 uM after 9 hr by propidium iodide staining-based FACS flow cytometric analysis (reference value: 9 +/- 1.2%). It counts as functional.
In experiment [25] the test system is HL-60. The experiment in a line: Cell cycle arrest in Homo sapiens (human) HL60 cells assessed as accumulation at S phase at 15 uM after 9 hr by propidium iodide staining-based FACS flow cytometric analysis (reference value: 56.8 +/- 2.4%). It is filed as functional.
The test system of experiment [26] is HL-60. In words: Cell cycle arrest in Homo sapiens (human) HL60 cells assessed as accumulation at S phase at 15 uM after 12 hr by propidium iodide staining-based FACS flow cytometric analysis (reference value: 56.8 +/- 2.4%). It counts as functional.
Experiment [27] relates to HL-60. In words: Upregulation of bax expression in Homo sapiens (human) HL60 cells at 15 uM after 4 hr by RT-PCR analysis. It counts as functional, cell-based.
The test system of experiment [28] is HL-60. In words: Cell cycle arrest in Homo sapiens (human) HL60 cells assessed as accumulation at G0/G1 phase at 15 uM after 6 hr by propidium iodide staining-based FACS flow cytometric analysis (reference value: 36.2 +/- 2.4%). It counts as functional.
Experiment [29] has as its system HL-60. The experiment in a line: Cell cycle arrest in Homo sapiens (human) HL60 cells assessed as accumulation at S phase at 15 uM after 6 hr by propidium iodide staining-based FACS flow cytometric analysis (reference value: 56.8 +/- 2.4%). It is filed as functional.

5 compounds from ChEMBL document CHEMBL3045313, “Reduced Lantadenes A and B: semi-synthetic synthesis, selective cytotoxicity, apoptosis induction and inhibition of NO, TNF- production in HL-60 cells” (Med Chem Res, 2013) can be followed below.

The pIC50 is −log10 of the IC50, conventionally taken in molar units.

pIC50: −log10 of the molar value. Activity calls are given as the source filed them. The calls are words filed in the database; no cut-off is given here.

As for `CNC(=N)NCCC[C@H](N)C(=O)O`, the inhibition result with HL-60 [1] is “Active”.
For `C/C=C(/C)C(=O)O[C@@H]1CC(C)(C)C[C@H]2C3=CC[C@@H]4[C@@]5(C)CCC(=O)C(C)(C)[C@@H]5CC[C@@]4(C)[C@]3(C)CC[C@@]12C(=O)O` [LANTADENE A], the pIC50 in the experiment on MCF7 is 4.59; in the experiment with HL-60 [2] it was 4.71; in the experiment with HCT-116, 4.87; in the experiment on Vero it was less than 4.30; with HSC-2 it was 4.29.
For `CC(C)=CC(=O)O[C@@H]1CC(C)(C)C[C@@H]2C3=CC[C@@H]4[C@@]5(C)CCC(=O)C(C)(C)[C@@H]5CC[C@@]4(C)[C@]3(C)CC[C@]21C(=O)O` [LANTADENE B] the same measures were 4.09, 4.72, 4.88, less than 4.30 and 4.37.
Regarding `C/C=C(/C)C(=O)O[C@@H]1CC(C)(C)C[C@H]2C3=CC[C@@H]4[C@@]5(C)CC[C@H](O)C(C)(C)[C@@H]5CC[C@@]4(C)[C@]3(C)CC[C@@]12C(=O)O` [Reduced Lantadene A], the result in the experiment on HL-60 [3], with HL-60 [12], with HL-60 [13], in the experiment with HL-60 [15], with HL-60 [19] and in the experiment on HL-60 [23] was Active. Further, the result with HL-60 [27] was Active. Besides, the Activity entry with HL-60 [4] was “Dose-dependent effect”; in the experiment with HL-60 [5], 1.2%; in the experiment on HL-60 [6], 15.8%; in the experiment with HL-60 [7], “Dose-dependent effect”; in the experiment on HL-60 [8], 34.4%; in the experiment with HL-60 [9] it was 8.4%. The Activity with HL-60 [10] came to 3.2%; with HL-60 [11], 15.4%; in the experiment with HL-60 [14], 0.4%; with HL-60 [17], 42%; in the experiment with HL-60 [18] it was 0.2%; with HL-60 [20], 57%. Further, the Activity in the experiment on HL-60 [22] is 14%; with HL-60 [24] it was 20.8%; in the experiment on HL-60 [25], 63.6%; in the experiment with HL-60 [26], 44.8%; with HL-60 [28] it was 20.8%; with HL-60 [29], 64.2%. In addition, the negative logarithm of the IC50 (pIC50) with MCF7 was 5.22; in the experiment with HL-60 [2] it was 5.82; in the experiment with HCT-116, 5.92; with Vero it was less than 4.30; in the experiment with HSC-2, 5.21. Also, the inhibition entry in the experiment with HL-60 [16] and in the experiment with HL-60 [21] was “Dose-dependent effect” throughout.
`CC(C)=CC(=O)O[C@@H]1CC(C)(C)C[C@H]2C3=CC[C@@H]4[C@@]5(C)CC[C@H](O)C(C)(C)[C@@H]5CC[C@@]4(C)[C@]3(C)CC[C@@]12C(=O)O` [Reduced Lantadene B]: the result with HL-60 [3], in the experiment on HL-60 [12], in the experiment with HL-60 [13], in the experiment with HL-60 [15], in the experiment on HL-60 [19] and with HL-60 [23] was Active. For the same compound, in the experiment with HL-60 [27], the result was Active. Besides, the Activity result with HL-60 [4] was “Dose-dependent effect”; in the experiment with HL-60 [6], 14.8%; with HL-60 [7], “Dose-dependent effect”; in the experiment on HL-60 [8], 32.8%; in the experiment with HL-60 [9] it was 7.4%; in the experiment on HL-60 [10], 3.4%. Also, the Activity was found to be 13.9% in the experiment on HL-60 [11]; 0.5% in the experiment on HL-60 [14]; 40.8% in the experiment with HL-60 [17]; 0.3% in the experiment on HL-60 [18]; 55.1% in the experiment on HL-60 [20]; 12.6% in the experiment on HL-60 [22]. The Activity with HL-60 [24] came to 19.9%; in the experiment with HL-60 [25], 61.6%; with HL-60 [26], 42.1%; in the experiment on HL-60 [28] it was 18.2%; in the experiment on HL-60 [29], 62.1%. Moreover, the pIC50 is 5.28 with MCF7; 5.68 with HL-60 [2]; 5.74 in the experiment with HCT-116; less than 4.30 in the experiment with Vero; 5.19 in the experiment on HSC-2. Also, the inhibition result in the experiment with HL-60 [16] and in the experiment with HL-60 [21] was “Dose-dependent effect” throughout.
